Measured values: patent publication US20040019082A1, “Reversible infertility in male mice following oral administration of alkylated imino sugars: a non-hormonal approach to male contraception” (United Therapeutics Corporation, priority 2002, published 2004)

Key:
Format in all cases: in vivo, mouse
[1] = tested on: male C57BL/6 mice; assay: Mating assay, fertility of male mice; conditions: 250 mg/kg/day
From the text: Treatment of mice—Male C57BL/6 mice were housed under standard non-sterile conditions. The mice were provided with water ad lib. and prior to drug administration were fed a diet of pelleted mouse chow (expanded Rat and Mouse Chow 3, SDS Ltd.) To administer the compounds of the present invention, the mice were fed a diet of powdered mouse chow (expanded Rat and Mouse Chow 1, ground, SDS Ltd.) containing either NB-DNJ, NB-DGJ, NN-6-MeDGJ, or DNJ. The diet and compound (both as dry solids) were mixed thoroughly, stored at room temperature, and used within 7 days of mixing.
Mating assays—To assess the fertility of male mice that were fed on a diet containing an iminosugar, a mating assay was used: typically six week old male C57BL/6 mice in groups of three were administered diet containing compound for five weeks (unless otherwise specified), after which each of them was caged with four untreated female C57BL/6 mice, and provided with standard pelleted chow. Females were at least 11 weeks old, and age-matched in each experiment. The male was removed from the females after 7 or 9 days, depending on the experiment; the females were monitored for vaginal mucous plugs, pregnancies, and, if any, litter sizes. To study any effect on female fertility six-week-old female C57BL/6 mice were treated with NB-DNJ for five weeks, after which each of them was caged with a non-treated age-matched male for four days.

[2] = Body, gonad and organ weights of treated mice
[3] = tested on: liver glycogen; assay: Liver glycogen levels in fed or starved mice; conditions: 250 mg/kg/day
Description: Liver glycogen levels were measured in untreated and NN-DGJ-treated mice (FIG. 6B), who were either provided food or starved.

thymus and spleen weights ([2]; 250 mg/kg/day): did not affect
breakdown of liver glycogen during starvation [3]: did not inhibit
SMILES: CCCCCCCCCN1C[C@H](O)[C@@H](O)[C@@H](O)[C@H]1CO [NN-DGJ]
fertility of male mice ([1]; after five weeks of treatment, four treated mice): completely suppressed
litter size compared with untreated males ([1]; six weeks after withdrawal): almost the same
fertility of male mice after withdrawal ([1]; six weeks following withdrawal): fully regained fertility
body weight relative to untreated mice ([2]; 250 mg/kg/day over a 40 day period, n=8): did not affect
